Assay: xn = mol fraction of the nth substance listed
Details: 298.15 K, 100 kPa

CCCCCCCC[N+]1(C)CCCC1.O=S(=O)([N-]S(=O)(=O)C(F)(F)F)C(F)(F)F + CCCCOC(C)=O
Details	electrical conductivity [S/m]	viscosity [mPa·s]
x2 = 0	0.082	138.2
x2 = 0.481	0.256	–
x2 = 0.4969	–	17.37
x2 = 0.6954	–	7.1
x2 = 0.7372	0.361	–
x2 = 0.7499	–	5.07
x2 = 0.8031	–	3.42
x2 = 0.8484	–	2.5
x2 = 0.8928	0.242	–
x2 = 0.9016	–	1.732
x2 = 0.9431	–	1.202
x2 = 0.9456	0.131	–

CCCCCCCC[n+]1ccccc1.O=S(=O)([N-]S(=O)(=O)C(F)(F)F)C(F)(F)F + CCCCOC(C)=O
Details	electrical conductivity [S/m]	viscosity [mPa·s]
x2 = 0	0.097	104.1
x2 = 0.2414	0.166	–
x2 = 0.2556	–	49.6
x2 = 0.481	0.271	–
x2 = 0.501	–	18.43
x2 = 0.6984	–	6.82
x2 = 0.7372	0.384	–
x2 = 0.7522	–	4.87
x2 = 0.7923	0.377	–
x2 = 0.7996	–	3.57
x2 = 0.8427	0.333	–
x2 = 0.8487	–	2.47
x2 = 0.8928	0.258	–
x2 = 0.8996	–	1.732
x2 = 0.9456	0.124	–
x2 = 0.9493	–	1.227

CCCCCCCCn1cc[n+](C)c1.O=S(=O)([N-]S(=O)(=O)C(F)(F)F)C(F)(F)F + CCCCOC(C)=O
Details	electrical conductivity [S/m]	viscosity [mPa·s]
x2 = 0.2622	–	44.2
x2 = 0.481	0.307	–
x2 = 0.5001	–	17.1
x2 = 0.6824	0.407	–
x2 = 0.7372	0.414	–
x2 = 0.7503	–	4.99
x2 = 0.7923	0.406	–
x2 = 0.797	–	3.47
x2 = 0.8503	–	2.53
x2 = 0.8928	0.279	–
x2 = 0.8976	–	1.73
x2 = 0.9305	–	1.308
x2 = 0.9456	0.19	–

CCCCOC(C)=O + CCCC[n+]1ccn(C)c1.O=S(=O)([N-]S(=O)(=O)C(F)(F)F)C(F)(F)F
Details	electrical conductivity [S/m]	viscosity [mPa·s]
x1 = 0.2414	0.529	26
x1 = 0.481	0.67	11.88
x1 = 0.6824	0.725	4.9
x1 = 0.7372	0.704	3.42
x1 = 0.7923	0.654	2.65
x1 = 0.8427	0.535	2.043

From a compilation of properties of binary mixtures (doi:10.1039/c7cp05886a)
